The record followed here is patent publication US7722893B2, “Use of substitute 2,4-bis (alkylamino) pyrimidines or quinzolines as antimicrobials” (Ciba Specialty Chemicals Corporation, priority 2003, dated 2010).

SMILES strings stand for the structures. Bounds are passed on as bounds.

For test [1], the system named is Staphylococcus aureus ATCC 6538. Nature of the test: MIC of a broadened organism spectrum (agar). It counts as cell-based. As to conditions: for MIC: ATCC6538, 24 hours at 37° C., read-out: minimum inhibiting concentration MIC. From the text:
(§1) Determination of the Minimum Inhibiting Concentration MIC [ppm] of a Broadened Organism Spectrum
(§2) • Medium: Casein/soybean flour peptone agar (Merck) • *Sabouraud 4% glucose agar (Merck) • Dilution medium: sterile 0.85% NaCl solution • Test organisms: Staphylococcus aureus ATCC 6853 and 9144 • Staphylococcus epidermidis ATCC 12228 • C. xerosis ATCC 373 ** • C. minutissimum ATCC 23348 • Proplonibacterium acnes ATCC 6919 • Escherichia coli ATCC 10536 and NCTC 8196 • Proteus vulgaris ATCC 6896 • Klebsiella pneumoniae ATCC 4352 • Salmonella choleraesuis ATCC 9184 • Pseudomonas aeruginosa ATCC 15442 • *Candida albicans ATCC 10231 • *Aspergillus niger ATCC 6275 • Incubation: 24 hours at 37° C. • *3 days at 28° C. • Test solution: 1% stock solutions of all the test substances in a suitable solvent are prepared and diluted in serial dilutions (1:10, 1:100 and 1:1000 dilution), where possible diluted to such an extent that the end concentrations in agar are from 500 ppm to 10 ppm. Test principle:
(§3) 0.3 ml of the dilution stage in question is mixed with 15 ml of still-liquid nutrient medium.
(§4) When the nutrient substrate has solidified, 10 μl portions of a suitable organism dilution of the test strains in 0.85% NaCl solution are spotted onto the agar medium: […]

Test [2] has as its system Propionibacterium acnes ATCC 6919. Nature of the test: MIC of a broadened organism spectrum (agar). The format is cell-based. The note with it: 3 days incubation under anaerobic conditions; for MIC: Cutibacterium acnes, ATCC6919, 72 h, read-out: minimum inhibiting concentration MIC.
Source text: as §1, §2, §3, §4

The test system of test [3] is Proteus vulgaris ATCC 6896. Nature of the test: MIC of a broadened organism spectrum (agar). It counts as cell-based. The note with it: for MIC: ATCC6896, 24 hours at 37° C., read-out: minimum inhibiting concentration MIC.
Source text: as §1, §2, §3, §4

For test [4], the system named is Aspergillus niger ATCC 6275. Nature of the test: MIC of a broadened organism spectrum (agar). The format is cell-based. The note with it: Sabouraud 4% glucose agar, 3 days at 28° C.; for MIC: ATCC6275, 72 h, read-out: minimum inhibiting concentration MIC.
Source text: as §1, §2, §3, §4

In test [5] the test system is Salmonella choleraesuis ATCC 9184. Kind of test: MIC of a broadened organism spectrum (agar). The format is cell-based. The note with it: 24 hours at 37° C.; for MIC: Salmonella enterica, read-out: minimum inhibiting concentration MIC.
Source text: as §1, §2, §3, §4

A further test concerns C. xerosis ATCC 373. Kind of test: MIC of a broadened organism spectrum (agar). The format is cell-based. The note with it: 3 days incubation; for MIC: Corynebacterium xerosis, ATCC373, 72 h, read-out: minimum inhibiting concentration MIC.
Source text: as §1, §2, §3, §4

Test [6] deals with Staphylococcus aureus ATCC 9144. Kind of test: MIC of a broadened organism spectrum (agar). The format is cell-based. The note with it: for MIC: ATCC9144, 24 hours at 37° C., read-out: minimum inhibiting concentration MIC.
Source text: as §1, §2, §3, §4

Test [7] has as its system Candida albicans ATCC 10231. Nature of the test: MIC of a broadened organism spectrum (agar). The note with it: Sabouraud 4% glucose agar, 3 days at 28° C.; for MIC: ATCC10231, 72 h, read-out: minimum inhibiting concentration MIC. The format is cell-based.
Source text: as §1, §2, §3, §4

In test [8] the test system is Escherichia coli ATCC 10536. Nature of the test: MIC of a broadened organism spectrum (agar). It counts as cell-based. As to conditions: for MIC: ATCC10536, 24 hours at 37° C., read-out: minimum inhibiting concentration MIC.
Source text: as §1, §2, §3, §4

Test [9] deals with Staphylococcus epidermidis ATCC 12228. Kind of test: MIC of a broadened organism spectrum (agar). The format is cell-based. As to conditions: for MIC: ATCC12228, 24 hours at 37° C., read-out: minimum inhibiting concentration MIC.
Source text: as §1, §2, §3, §4

The subject of test [10] is Escherichia coli NCTC 8196. Nature of the test: MIC of a broadened organism spectrum (agar). It counts as cell-based. As to conditions: for MIC: NCTC8196, 24 hours at 37° C., read-out: minimum inhibiting concentration MIC.
Source text: as §1, §2, §3, §4

Test [11] deals with C. minutissimum ATCC 23348. Nature of the test: MIC of a broadened organism spectrum (agar). The format is cell-based. The note with it: 3 days incubation (Table 3a); for MIC: Corynebacterium minutissimum, ATCC23348, 72 h, read-out: minimum inhibiting concentration MIC.
Source text: as §1, §2, §3, §4

The test system of test [12] is Klebsiella pneumoniae ATCC 4352. Nature of the test: MIC of a broadened organism spectrum (agar). The format is cell-based. As to conditions: for MIC: ATCC4352, 24 hours at 37° C., read-out: minimum inhibiting concentration MIC.
Source text: as §1, §2, §3, §4

The subject of test [13] is Pseudomonas aeruginosa ATCC 15442. Nature of the test: MIC of a broadened organism spectrum (agar). It counts as cell-based. The note with it: for MIC: ATCC15442, 24 hours at 37° C., read-out: minimum inhibiting concentration MIC.
Source text: as §1, §2, §3, §4

A further test relates to S. gordonii ATCC 10558. Nature of the test: MIC of a broadened organism spectrum: oral organisms. The format is cell-based, Streptococcus gordonil. As to conditions: for MIC: Streptococcus gordonii, ATCC10558, 24 hours aerobic with 10% CO2, read-out: minimum inhibiting concentration MIC, oral organisms. From the text:
(§5) Determination of the Minimum Inhibiting Concentration MIC (ppm) of a Broadened Organism Spectrum: Oral Organisms
(§6) • Medium: thioglycolate bouillon with hemin and menadione Columbia bouillon with hemin and menadione for P. gingivalis and P. nigrescens • Dilution medium: the appropriate amount of the substances was pipetted directly into the medium. • Test organisms: Actinobacillus actinomycetemcomitans ATCC 43718 • Streptococcus gordonil ATCC 10558 • Streptococcus mutans ATCC 33402 • Actinomyces viscosus ATCC 43146 • Fusobacterium nucleatum subsp. polymorphum ATCC 10953 • Porphyromonas gingivalis ATCC 33277 • Prevotella nigrescens ATCC 33563 • Incubation: 7-10 days at 37° C anaerobic, or 24 hours aerobic with 10% CO2 for Streptococci and A. actinomycetemcomitans • Test solution: Stock solutions of all the test substances in ethanol at 1500 ppm (w/w) are used. Test Principle:
(§7) Bacteria are removed from blood agar plates using cotton wool buds and a suitable optical density (McFarland 0.5) is adjusted in an appropriate medium; that solution is used undiluted for F. nucleatum and P. nigrescens, and in a dilution of 1:20 for the other strains. 0.1 ml of bacterial culture is added per 2 ml of active ingredient solution and incubation is carried out as described above.

The test system of the next test is P. gingivalis ATCC 3277. The description is as above. It counts as cell-based, Porphyromonas gingivalis. The note with it: 7-10 days at 37° C anaerobic; for MIC: Porphyromonas gingivalis, ATCC3277, Columbia bouillon, read-out: minimum inhibiting concentration MIC, oral organisms.
Source text: as §5, §6, §7

Test [14] concerns Actinobacillus actinomycetemcomitans ATCC 43718. Described as above. It counts as cell-based. The note with it: A. actinomycetemcomitans ATCC 43718, 24 hours aerobic with 10% CO2; for MIC: Aggregatibacter actinomycetemcomitans, ATCC43718, read-out: minimum inhibiting concentration MIC, oral organisms.
Source text: as §5, §6, §7

The test system of test [15] is Streptococcus mutans ATCC 33402. The test is described as above. The format is cell-based. The note with it: S. mutans ATCC 33402, 24 hours aerobic with 10% CO2; for MIC: Streptococcus mutans, ATCC33402, read-out: minimum inhibiting concentration MIC, oral organisms.
Source text: as §5, §6, §7

The test system of test [16] is Prevotella nigrescens ATCC 33563. The test is described as above. It counts as cell-based. As to conditions: P. nigrescens ATCC 33563, Columbia bouillon, 7-10 days at 37° C anaerobic; for MIC: Prevotella nigrescens, ATCC33563, read-out: minimum inhibiting concentration MIC, oral organisms.
Source text: as §5, §6, §7

Test [17] deals with Fusobacterium nucleatum subsp. polymorphum ATCC 10953. The test is described as above. As to conditions: F. nucleatum subsp. polymorphum ATCC 10953, 7-10 days at 37° C anaerobic; for MIC: Fusobacterium nucleatum, ATCC10953, read-out: minimum inhibiting concentration MIC, oral organisms. The format is cell-based.
Source text: as §5, §6, §7

Test [18] concerns Actinomyces viscosus ATCC 43146. Described as above. As to conditions: A. viscosus ATCC 43146, 7-10 days at 37° C anaerobic; for MIC: Actinomyces viscosus, ATCC43146, read-out: minimum inhibiting concentration MIC, oral organisms. It counts as cell-based.
Source text: as §5, §6, §7

With `CCCCCCCCNc1nc(C)c(CCCCCC)c(NCCOCCOCCN)n1` [PY55], the MIC in [1] is 7.8 µg/mL; in test [2], 3.9 µg/mL; in test [3], above 500 µg/mL; in [4], 500 µg/mL; in test [5] it was 7.8 µg/mL; in the test on C. xerosis ATCC 373, 3.9 µg/mL. For the same compound, the MIC is 3.9 µg/mL in test [6]; 125 µg/mL in [7]; 7.8 µg/mL in test [8]; 7.8 µg/mL in test [9]; 7.8 µg/mL in [10]; 3.9 µg/mL in test [11]. Further, the MIC is 15.6 µg/mL in test [12]; above 500 µg/mL in test [13]; 3.8 µg/mL in the test on S. gordonii ATCC 10558; 3.8 µg/mL in the test on P. gingivalis ATCC 3277; 15 µg/mL in test [14]; 7.5 µg/mL in [15]. Further, the MIC in test [16] came to 3.8 µg/mL; in test [17], 7.5 µg/mL; in test [18], 3.8 µg/mL.
On to `Cc1cc(NCc2ccccc2)nc(NCc2ccccc2)n1` [PY8, N,N′-Bis(2,4-dibenzylamino)-6-methylpyrimidine], for which the MIC in [1] is 31.2 µg/mL; in test [2], 31.2 µg/mL; in test [3], above 500 µg/mL; in test [4] it was 250 µg/mL; in test [5], 62.5 µg/mL; in the test with C. xerosis ATCC 373, 7.8 µg/mL. Also, the MIC was 31.2 µg/mL in test [6]; 250 µg/mL in [7]; 62.5 µg/mL in test [8]; 31.2 µg/mL in [9]; 31.2 µg/mL in test [10]; 15.6 µg/mL in [11]. Besides, the MIC in [12] is 15.6 µg/mL; in test [13], above 500 µg/mL; in the test on S. gordonii ATCC 10558, above 15 µg/mL; in the test on P. gingivalis ATCC 3277, 15 µg/mL; in test [14], above 15 µg/mL; in test [15], above 15 µg/mL. The MIC in test [16] came to 15 µg/mL; in test [17] it was 15 µg/mL; in test [18], 3.75 µg/mL.
Regarding `CCCCCCCCNc1cc(C)nc(NCCCCCCCC)n1` [PY5, N,N′-bis(2,4-dioctylamino)-6-methylpyrimidine], the “minimum inhibiting concentration MIC” value is recorded as 3.91 ppm in test [1] (24 hours at 37° C.); 3.91 ppm in [2]; above 1000 ppm in test [3] (24 hours at 37° C.); above 1000 ppm in test [4]; above 1000 ppm in test [5]; 7.81 ppm in the test on C. xerosis ATCC 373. The “minimum inhibiting concentration MIC” value in test [6] (24 hours at 37° C.) is given as 3.91 ppm; in test [7], above 1000 ppm; in test [8] (24 hours at 37° C.), above 1000 ppm; in [9] (24 hours at 37° C.), 3.91 ppm; in test [10] (24 hours at 37° C.), above 1000 ppm; in [11], 3.91 ppm. Besides, the “minimum inhibiting concentration MIC” value is 250 ppm in test [12] (24 hours at 37° C.) and above 1000 ppm in test [13] (24 hours at 37° C.). Besides, the “minimum inhibiting concentration MIC, oral organisms” value in the test on S. gordonii ATCC 10558 (24 hours aerobic with 10% CO2) is 15 ppm; in the test with P. gingivalis ATCC 3277 (Columbia bouillon), 7.5 ppm; in [14] it was above 15 ppm; in [15] it was 3.75 ppm; in [16], 15 ppm; in [17], above 15 ppm. In addition, the “minimum inhibiting concentration MIC, oral organisms” value in test [18] worked out at 3.75 ppm.
As to `CCCCCCCCNc1nc(C)cc(N2CCCC2)n1` [PY44], the MIC in test [1] was 7.8 µg/mL; in [2], 3.9 µg/mL; in [3], above 500 µg/mL; in test [4] it was 500 µg/mL; in test [5], 62.5 µg/mL; with C. xerosis ATCC 373, 3.9 µg/mL. In addition, the MIC in test [6] came out at 7.8 µg/mL; in [7] it was 250 µg/mL; in [8], 62.5 µg/mL; in test [9], 3.9 µg/mL; in test [10], 15.6 µg/mL; in test [11] it was 3.9 µg/mL. Also, the MIC is 7.8 µg/mL in [12]; above 500 µg/mL in test [13]; 7.5 µg/mL in the test with S. gordonii ATCC 10558; 3.8 µg/mL with P. gingivalis ATCC 3277; above 15 µg/mL in test [14]; 7.5 µg/mL in test [15]. For the same compound, the MIC in test [16], in [17] and in test [18] was 3.8 µg/mL each time.
